According to BindingDB's records for doi:10.1016/j.bmcl.2006.01.095 (Technische Universität Graz, 2006):

Tests used:
[1] = Inhibition of jack beans alpha-mannosidase
[2] = Inhibition of Streptomyces plicatus beta-D-hexosaminidase

| Ki [1] [µM] | Ki [2] [µM] | Structure (SMILES) |
| --- | --- | --- |
| 65 |  | CN(C)c1ccc(-c2cnc(-c3ccc(S(=O)(=O)NCCCCCCN4C[C@H](O)[C@@H](O)[C@H](O)[C@H]4CO)cc3)o2)cc1 [4-(5-(4-(dimethylamino)phenyl)oxazol-2-yl)-N-(6-((2R,3R,4R,5S)-3,4,5-trihydroxy-2-(hydroxymethyl)piperidin-1-yl)hexyl)benzenesulfonamide] |
|  | 1.8 | CC(=O)N[C@H]1CN(CCCCCCNS(=O)(=O)c2cccc3c(N(C)C)cccc23)[C@H](CO)[C@@H](O)[C@@H]1O [N-((3S,4R,5R,6R)-1-(6-(1-(dimethylamino)naphthalene-5-sulfonamido)hexyl)-4,5-dihydroxy-6-(hydroxymethyl)piperidin-3-yl)acetamide] |
